Measurements: the supplement of paper PMC10883282
± gives the standard deviation of the averaged measurements.

System: SK-LMS-1
Experiment: relative viability vs DMSO control (72 h) (fraction); higher = more viable cells
In short: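 Sarcoma cell lines were seeded in 384-well plates at densities chosen for 80–90% confluence, then 24 h later given 2.5 µl of serially diluted compound drawn from source plates spanning 10 mM to 0.0002 mM. They were held 72 h at 37 °C, 5% CO2, with 0.1% DMSO vehicle and a 5 µM positive control included. Relative viability was read with ATPLite as percent growth and averaged over up to triplicate wells. Rescaling placed full at 1 and none at 0.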

## CC(C)N1CCN(Cc2cnc(-c3cc(-c4cccc5[nH]ccc45)cc4[nH]ncc34)o2)CC1 [Nemiralisib]
0.00017 µM
  relative viability: 1.05 ± 0.047
0.00051 µM
  relative viability: 1.02 ± 0.033
0.00152 µM
  relative viability: 1.06 ± 0.038
0.00457 µM
  relative viability: 1.04 ± 0.011
0.01372 µM
  relative viability: 1.04 ± 0.047
0.04115 µM
  relative viability: 1.05 ± 0.04
0.1235 µM
  relative viability: 1.042 ± 0.0068
0.3704 µM
  relative viability: 0.994 ± 0.033
1.111 µM
  relative viability: 0.928 ± 0.012
3.333 µM
  relative viability: 0.821 ± 0.029
10 µM
  relative viability: 0.658 ± 0.041

## Cc1ccc(NC(=O)c2ccc(CN3CCN(C)CC3)cc2)cc1Nc1nc(-c2cccnc2)cs1 [Masitinib]
0.00017 µM
  relative viability: 1.03 ± 0.013
0.00051 µM
  relative viability: 1.05 ± 0.031
0.00152 µM
  relative viability: 1.03 ± 0.022
0.00457 µM
  relative viability: 1.02 ± 0.029
0.01372 µM
  relative viability: 1.02 ± 0.029
0.04115 µM
  relative viability: 1.04 ± 0.03
0.1235 µM
  relative viability: 1.01 ± 0.018
0.3704 µM
  relative viability: 1.008 ± 0.0068
1.111 µM
  relative viability: 0.953 ± 0.051
3.333 µM
  relative viability: 0.605 ± 0.0079
10 µM
  relative viability: 0.103 ± 0.0046

## CCc1cc2c(cc1N1CCC(N3CCOCC3)CC1)C(C)(C)c1[nH]c3cc(C#N)ccc3c1C2=O [Alectinib]
0.00017 µM
  relative viability: 1.06 ± 0.056
0.00051 µM
  relative viability: 1.1 ± 0.043
0.00152 µM
  relative viability: 1.08 ± 0.041
0.00457 µM
  relative viability: 1.1 ± 0.027
0.01372 µM
  relative viability: 1.12 ± 0.018
0.04115 µM
  relative viability: 1.08 ± 0.06
0.1235 µM
  relative viability: 1.119 ± 0.0081
0.3704 µM
  relative viability: 1.12 ± 0.0046
1.111 µM
  relative viability: 1.1 ± 0.019
3.333 µM
  relative viability: 1.11 ± 0.021
10 µM
  relative viability: 1.08 ± 0.016

## COc1cc2nccc(Oc3ccc(NC(=O)Nc4cc(C)on4)c(Cl)c3)c2cc1OC [Tivozanib]
0.00017 µM
  relative viability: 1.01 ± 0.022
0.00051 µM
  relative viability: 0.999 ± 0.029
0.00152 µM
  relative viability: 1.05 ± 0.04
0.00457 µM
  relative viability: 1.05 ± 0.037
0.01372 µM
  relative viability: 1.03 ± 0.038
0.04115 µM
  relative viability: 0.9926 ± 0.0016
0.1235 µM
  relative viability: 0.989 ± 0.036
0.3704 µM
  relative viability: 1.08 ± 0.044
1.111 µM
  relative viability: 1.16 ± 0.043
3.333 µM
  relative viability: 0.908 ± 0.058
10 µM
  relative viability: 0.462 ± 0.015
